In US7479478B2, “Human parathyroid hormone modifications, preparation and use” (The General Hospital Corporation, priority 1998, dated 2009):
No end group written: not given here.

How the values were obtained:
Type in all cases: cell-based
human PTH-1 receptors [1] = target: T1, human PTH-1 receptors (Homo sapiens, UniProt Q03431); test: Intracellular cAMP accumulation (adenylyl cyclase, AC, activation) in HKRK B7 cells; conditions: HKRK B7 cells; for AC activation (cAMP accumulation), result in words: compared with hPTH-(1-34) or parent peptide
T1 construct: expressed in transfected cells
T1 sequence (Q03431 27-593): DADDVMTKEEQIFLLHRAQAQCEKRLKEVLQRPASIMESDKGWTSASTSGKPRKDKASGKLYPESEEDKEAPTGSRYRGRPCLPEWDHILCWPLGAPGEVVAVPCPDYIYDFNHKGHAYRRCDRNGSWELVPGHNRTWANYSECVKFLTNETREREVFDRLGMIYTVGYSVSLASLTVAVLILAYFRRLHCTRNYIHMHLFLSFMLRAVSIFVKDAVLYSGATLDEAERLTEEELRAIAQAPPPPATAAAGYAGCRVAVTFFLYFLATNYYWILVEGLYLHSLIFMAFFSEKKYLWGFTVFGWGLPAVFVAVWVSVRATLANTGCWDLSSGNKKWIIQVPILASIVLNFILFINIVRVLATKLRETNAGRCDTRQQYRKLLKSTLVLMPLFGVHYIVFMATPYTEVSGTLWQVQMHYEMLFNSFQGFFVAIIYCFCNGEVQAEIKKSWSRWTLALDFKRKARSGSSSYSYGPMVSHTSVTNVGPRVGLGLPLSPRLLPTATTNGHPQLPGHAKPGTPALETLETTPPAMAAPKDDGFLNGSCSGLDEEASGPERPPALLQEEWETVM
Method: HKRK B7 or EW5 cells (32), subclones of LLC-PKI renal epithelial cells that stably express human or rat PTH-1 receptors (950,000 and 320,000 receptors/cell, respectively), were maintained under 5% CO2 in air in Dulbecco's modified essential medium containing 7% fetal bovine serum (FBS) and 1% penicillin/streptomycin (GIBCO-BRL, Grand Island, N.Y.). HEK-293 and COS-7 cells were cultured similarly, except that 10% FBS was used in the medium. Cells were seeded into 24-well plates two days before assay at a density of 2-2.5×10^5 cells/well (HKRK B7 or EW 5 cells) or 6×10^5 cells/well (in 6-well plates) (HEK-293 cells). In experiments involving HEK-293 cells, DNA transfections were performed 24 hr after plating and inositol radiolabel was added 24 hr thereafter (see below). COS-7 cell transfections were performed as previously described (Gardella, T. J., et al., Endocrinology 132(5):2024-2030 (1993)) Intracellular cAMP accumulation, PLC activation and PTHR binding affinity were measured as previously reported (Bringhurst, F. R., et al., Endocrinology 132(5):2090-2098 (1993); Guo, J., et al., Endocrinology 136(9):3884-3891 (1995)). Intracellular cAMP accumulation was measured in extracts of cells that were exposed to human PTH peptides in the presence of isobutylmethyxanthine (IBMX, 1 mM) at 37° C. for 15 min. After terminating the reactions by aspiration and freezing in liquid nitrogen, cell monolayers were extracted with 50 mM HCl and cAMP was measured using a radioimmunoassay kit (Dupont-New England Nuclear, Boston, Mass.).

rat PTH-1 receptors = target: T2, rat PTH-1 receptors (Rattus norvegicus, UniProt P25961); test: PLC activation in EW5 cells; conditions: compared with human PTH-1 receptor
T2 construct: expressed in transfected cells
T2 sequence (P25961 27-591): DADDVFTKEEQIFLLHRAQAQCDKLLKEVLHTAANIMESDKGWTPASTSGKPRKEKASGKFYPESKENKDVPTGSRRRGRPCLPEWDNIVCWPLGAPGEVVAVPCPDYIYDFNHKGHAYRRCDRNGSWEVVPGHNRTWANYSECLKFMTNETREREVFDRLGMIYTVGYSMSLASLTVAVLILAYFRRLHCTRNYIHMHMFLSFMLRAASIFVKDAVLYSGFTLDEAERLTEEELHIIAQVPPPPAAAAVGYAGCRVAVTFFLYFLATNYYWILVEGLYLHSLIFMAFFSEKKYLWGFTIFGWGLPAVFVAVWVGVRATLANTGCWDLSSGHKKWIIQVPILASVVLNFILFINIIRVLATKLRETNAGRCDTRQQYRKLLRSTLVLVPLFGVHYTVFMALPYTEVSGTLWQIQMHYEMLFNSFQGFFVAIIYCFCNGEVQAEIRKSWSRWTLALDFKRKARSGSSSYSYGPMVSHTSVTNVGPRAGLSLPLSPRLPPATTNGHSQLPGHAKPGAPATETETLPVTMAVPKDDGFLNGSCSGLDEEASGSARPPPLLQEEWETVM
Method: (§1) HKRK B7 or EW5 cells (32), subclones of LLC-PKI renal epithelial cells that stably express human or rat PTH-1 receptors (950,000 and 320,000 receptors/cell, respectively), were maintained under 5% CO2 in air in Dulbecco's modified essential medium containing 7% fetal bovine serum (FBS) and 1% penicillin/streptomycin (GIBCO-BRL, Grand Island, N.Y.). HEK-293 and COS-7 cells were cultured similarly, except that 10% FBS was used in the medium. Cells were seeded into 24-well plates two days before assay at a density of 2-2.5×10^5 cells/well (HKRK B7 or EW 5 cells) or 6×10^5 cells/well (in 6-well plates) (HEK-293 cells). In experiments involving HEK-293 cells, DNA transfections were performed 24 hr after plating and inositol radiolabel was added 24 hr thereafter (see below). COS-7 cell transfections were performed as previously described (Gardella, T. J., et al., Endocrinology 132(5):2024-2030 (1993))
PLC was activated by PTH agonists in the presence of 30 mM LiCl at 37° C. for 30 min after 16 hr of labeling with [^3H]myo-inositol (3 uCi/ml) in serum-free medium containing 0.1% bovine serum albumin. The reactions were stopped by rapid aspiration and addition of cold 5% TCA. Water-soluble radiolabeled inositol trisphosphate (IP3) was isolated after ether extraction by ion-exchange chromatography (Guo, J., et al., Endocrinology 136(9):3884-3891 (1995)). […]

human PTH-1 receptors [2] = target: T1, human PTH-1 receptors; test: PLC activation (total inositol polyphosphates) in transiently transfected HEK-293 cells; conditions: 1000 nM peptide, mean ± SEM
Method: as §1
PLC was activated by PTH agonists in the presence of 30 mM LiCl at 37° C. for 30 min after 16 hr of labeling with [^3H]myo-inositol (3 uCi/ml) in serum-free medium containing 0.1% bovine serum albumin. […]
Total inositol polyphosphate produced in response to 1000 nM of the peptides shown were measured in HEK-293 cells that transiently expressed human PTH-1 receptors. Results are expressed as means±SEMs of the % of basal activity for triplicate determinations.

## GVSEIQLMHNLGKHLNSMRRVEWLRKKL [[Gly^1,Arg^19]hPTH-(1-28)]
Human PTH-1 receptors [1]
  AC activation (cAMP accumulation), result in words: indistinguishable from that of hPTH-(1-34) and equivalent to that by hPTH(1-34) and full

## SVSEIQLMHNLGKHLNSMERVEWLRKKL-NH2 [hPTH-(1-28)]
Rat PTH-1 receptors
  signaling (PLC) via rat PTH-1 receptors, result in words: more severely impaired
Human PTH-1 receptors [2]
  PLC Activity (% Basal): 305 ± 20 % Basal
Human PTH-1 receptors [1]
  EC50: 1 nM
  AC activation (cAMP accumulation), result in words: as effectively as did hPTH-(1-34)
